Legend:
Test in all cases: Test C preemergence
Format in all cases: in vivo
[1] = test system: wheat (winter wheat, Triticum aestivum); conditions: for Plant response rating, Wheat: scale 0 to 100, 0 no effect, 100 complete control
Summary of the method: (§1)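 Seeds in loam-sand soil treated preemergence, or plants in peat-based medium sprayed postemergence at 2–18 cm (1- to 4-leaf stage), with compound in a non-phytotoxic solvent mixture containing surfactant. Greenhouse-held 13–15 d, then visually rated against controls on a 0–100 scale (0 = no effect, 100 = complete control); dash = not tested.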

corn (Zea mays) = conditions: for Plant response rating, Corn: scale 0 to 100, 0 no effect, 100 complete control
Summary of the method: as §1

[2] = test system: nutsedge, yellow (yellow nutsedge, Cyperus esculentus); conditions: for Plant response rating, Nutsedge, Yellow: scale 0 to 100, 0 no effect, 100 complete control
Summary of the method: as §1

[3] = test system: johnsongrass (Sorghum halepense); conditions: for Plant response rating, Johnsongrass: scale 0 to 100, 0 no effect, 100 complete control
Summary of the method: as §1

[4] = test system: foxtail, giant (giant foxtail, Setaria faberii); conditions: for Plant response rating, Foxtail, Giant: scale 0 to 100, 0 no effect, 100 complete control
Summary of the method: as §1

[5] = test system: crabgrass, large (large crabgrass, Digitaria sanguinalis); conditions: for Plant response rating, Crabgrass, Large: scale 0 to 100, 0 no effect, 100 complete control
Summary of the method: as §1

[6] = test system: velvetleaf (Abutilon theophrasti); conditions: for Plant response rating, Velvetleaf: scale 0 to 100, 0 no effect, 100 complete control
Summary of the method: as §1

[7] = test system: morningglory (Ipomoea coccinea); conditions: for Plant response rating, Morningglory: scale 0 to 100, 0 no effect, 100 complete control
Summary of the method: as §1

[8] = test system: waterhemp (common waterhemp, Amaranthus rudis); conditions: for Plant response rating, Waterhemp: scale 0 to 100, 0 no effect, 100 complete control
Summary of the method: as §1

[9] = test system: lambsquarters (Chenopodium album); conditions: for Plant response rating, Lambsquarters: scale 0 to 100, 0 no effect, 100 complete control
Summary of the method: as §1

soybean (Glycine max) = conditions: for Plant response rating, Soybean: scale 0 to 100, 0 no effect, 100 complete control
Summary of the method: as §1

[10] = test system: Galium (catchweed bedstraw, Galium aparine); conditions: for Plant response rating, Galium: scale 0 to 100, 0 no effect, 100 complete control
Summary of the method: as §1

[11] = test system: ryegrass, Italian (Italian ryegrass, Lolium multiflorum); conditions: for Plant response rating, Ryegrass, Italian: scale 0 to 100, 0 no effect, 100 complete control
Summary of the method: as §1

[12] = test system: blackgrass (Alopecurus myosuroides); conditions: for Plant response rating, Blackgrass: scale 0 to 100, 0 no effect, 100 complete control
Summary of the method: as §1

[13] = test system: pigweed (Amaranthus retroflexus); conditions: for Plant response rating, Pigweed: scale 0 to 100, 0 no effect, 100 complete control
Summary of the method: as §1

[14] = test system: oilseed rape (Brassica napus); conditions: for Plant response rating, Oilseed Rape: scale 0 to 100, 0 no effect, 100 complete control
Summary of the method: as §1

[15] = test system: barnyardgrass (Echinochloa crus-galli); conditions: for Plant response rating, Barnyardgrass: scale 0 to 100, 0 no effect, 100 complete control
Summary of the method: as §1

[16] = 31 g ai/ha, 0 is no effect, 100 is complete control

## O=C1NCC(c2cccc(OC(F)(F)C(F)F)c2)C1C(=O)Nc1cccc(F)c1F (racemic) [Compound 697]
[1]; [16]
  Plant response rating (scale of 0 to 100), Wheat: 0
[1]; 62 g ai/ha
  Plant response rating, Wheat: 0
[1]; 125 g ai/ha
  Plant response rating, Wheat: 10
[1]; 250 g ai/ha
  Plant response rating, Wheat: 35
Corn (Zea mays); [16]
  Plant response rating (scale of 0 to 100), Corn: 40
Corn (Zea mays); 62 g ai/ha
  Plant response rating, Corn: 65
Corn (Zea mays); 125 g ai/ha
  Plant response rating, Corn: 80
Corn (Zea mays); 250 g ai/ha
  Plant response rating, Corn: 75
[2]; [16]
  Plant response rating (scale of 0 to 100), Nutsedge, Yellow: 0
[2]; 62 g ai/ha
  Plant response rating, Nutsedge, Yellow: 0
[2]; 125 g ai/ha
  Plant response rating, Nutsedge, Yellow: 0
[2]; 250 g ai/ha
  Plant response rating, Nutsedge, Yellow: 0
[3]; [16]
  Plant response rating (scale of 0 to 100), Johnsongrass: 70
[3]; 62 g ai/ha
  Plant response rating, Johnsongrass: 75
[3]; 125 g ai/ha
  Plant response rating, Johnsongrass: 85
[3]; 250 g ai/ha
  Plant response rating, Johnsongrass: 85
[4]; [16]
  Plant response rating (scale of 0 to 100), Foxtail, Giant: 85
[4]; 62 g ai/ha
  Plant response rating, Foxtail, Giant: 85
[4]; 125 g ai/ha
  Plant response rating, Foxtail, Giant: 90
[4]; 250 g ai/ha
  Plant response rating, Foxtail, Giant: 90
[5]; [16]
  Plant response rating (scale of 0 to 100), Crabgrass, Large: 90
[5]; 62 g ai/ha
  Plant response rating, Crabgrass, Large: 95
[5]; 125 g ai/ha
  Plant response rating, Crabgrass, Large: 90
[5]; 250 g ai/ha
  Plant response rating, Crabgrass, Large: 95
[6]; [16]
  Plant response rating (scale of 0 to 100), Velvetleaf: 0
[6]; 62 g ai/ha
  Plant response rating, Velvetleaf: 25
[6]; 125 g ai/ha
  Plant response rating, Velvetleaf: 65
[6]; 250 g ai/ha
  Plant response rating, Velvetleaf: 35
[7]; [16]
  Plant response rating (scale of 0 to 100), Morningglory: 10
[7]; 62 g ai/ha
  Plant response rating, Morningglory: 10
[7]; 125 g ai/ha
  Plant response rating, Morningglory: 25
[7]; 250 g ai/ha
  Plant response rating, Morningglory: 30
[8]; [16]
  Plant response rating (scale of 0 to 100), Waterhemp: 80
[8]; 62 g ai/ha
  Plant response rating, Waterhemp: 80
[8]; 125 g ai/ha
  Plant response rating, Waterhemp: 85
[8]; 250 g ai/ha
  Plant response rating, Waterhemp: 85
[9]; [16]
  Plant response rating (scale of 0 to 100), Lambsquarters: 35
[9]; 62 g ai/ha
  Plant response rating, Lambsquarters: 40
[9]; 125 g ai/ha
  Plant response rating, Lambsquarters: 65
[9]; 250 g ai/ha
  Plant response rating, Lambsquarters: 60
Soybean (Glycine max); [16]
  Plant response rating (scale of 0 to 100), Soybean: 0
Soybean (Glycine max); 62 g ai/ha
  Plant response rating, Soybean: 10
Soybean (Glycine max); 125 g ai/ha
  Plant response rating, Soybean: 0
Soybean (Glycine max); 250 g ai/ha
  Plant response rating, Soybean: 10
[10]; [16]
  Plant response rating (scale of 0 to 100), Galium: 0
[10]; 62 g ai/ha
  Plant response rating, Galium: 85
[10]; 125 g ai/ha
  Plant response rating, Galium: 85
[10]; 250 g ai/ha
  Plant response rating, Galium: 90
[11]; [16]
  Plant response rating (scale of 0 to 100), Ryegrass, Italian: 15
[11]; 62 g ai/ha
  Plant response rating, Ryegrass, Italian: 55
[11]; 125 g ai/ha
  Plant response rating, Ryegrass, Italian: 45
[11]; 250 g ai/ha
  Plant response rating, Ryegrass, Italian: 50
[12]; [16]
  Plant response rating (scale of 0 to 100), Blackgrass: 70
[12]; 62 g ai/ha
  Plant response rating, Blackgrass: 75
[12]; 125 g ai/ha
  Plant response rating, Blackgrass: 90
[12]; 250 g ai/ha
  Plant response rating, Blackgrass: 90
[13]; [16]
  Plant response rating (scale of 0 to 100), Pigweed: 75
[13]; 62 g ai/ha
  Plant response rating, Pigweed: 80
[13]; 125 g ai/ha
  Plant response rating, Pigweed: 85
[13]; 250 g ai/ha
  Plant response rating, Pigweed: 85
[14]; [16]
  Plant response rating (scale of 0 to 100), Oilseed Rape: 20
[14]; 62 g ai/ha
  Plant response rating, Oilseed Rape: 70
[14]; 125 g ai/ha
  Plant response rating, Oilseed Rape: 80
[14]; 250 g ai/ha
  Plant response rating, Oilseed Rape: 85
[15]; [16]
  Plant response rating (scale of 0 to 100), Barnyardgrass: 85
[15]; 62 g ai/ha
  Plant response rating, Barnyardgrass: 90
[15]; 125 g ai/ha
  Plant response rating, Barnyardgrass: 90
[15]; 250 g ai/ha
  Plant response rating, Barnyardgrass: 90

From patent US12077503B2, “Substituted cyclic amides and their use as herbicides” (FMC CORPORATION, priority 2015, dated 2024)
